Test results taken from patent publication US20050038113A1, “Valproic acid and derivatives for the combinatorial therapeutic treatment of human cancers and for the treatment of tumor metastasis and minimal residual disease” (G2M Cancer Drugs AG, priority 2001, published 2005).

Columns and labels:
[1] = system: Renca-lacZ/EGFRvIII renal carcinoma cells; assay: MTT cell viability assay; type: cell-based, Mouse; conditions: 40 h
Source text: (§1) Renal cell carcinoma (Renca) cells stably transfected with plasmid pZeoSV2/lacZ encoding E. coli β-galactosidase, and either with plasmids pSV2ErbB2N and pSV2neo encoding c-erbB2 and neomycin resistance (Renca-lacZ/ErbB2) (Maurer-Gebhard et al., Cancer Res. 58: 2661-2666, 1998), or plasmids pLTR-EGFR or pLTR-EGFRvIII and pSV2neo encoding epidermal growth factor (EGF) receptor, the oncogenically activated EGF receptor variant EGFRvIII, and neomycin resistance (Renca-lacZ/EGFR and Renca-lacZ/EGFRvIII) (Schmidt et al., Oncogene 18: 1711-1721, 1999) were grown in RPMI-1640 medium supplemented with 8% FBS, 2 mM L-glutamine, 100 U/ml penicillin, 100 μg/ml streptomycin, 0.25 mg/ml Zeocin and 0.48 mg/ml G418.
(§2) Tumor cells were seeded in 96 well plates at a density of 1×10^4 cells/well in normal growth medium. SKBR3, A431 and SKOV3 cells were treated for 40 h with valproic acid at a final concentration of 3 mM, or 10 ng/ml of the recombinant anti-ErbB2 single chain antibody-toxin scFv(FRP5)-ETA (Wels et al., Cancer Res. 52: 6310-6317, 1992), or 10 ng/ml of the recombinant anti-EGF receptor single chain antibody-toxin scFv(14E1)-ETA (Schmidt et al., Brit. J. Cancer 75: 1575-1584, 1997), or a combination of valproic acid with either scFv(FRP5)-ETA or scFv(14E1)-ETA at the same concentrations. Renca-lacZ/ErbB2, Renca-lacZ/EGFR and Renca-lacZ/EGFRvIII cells were treated for 40 h with valproic acid at a final concentration of 1 mM, or 10 ng/ml of the recombinant anti-ErbB2 single chain antibody-toxin scFv(FRP5)-ETA, or 1 ng/ml of the recombinant anti-EGF receptor single chain antibody-toxin scFv(14E1)-ETA, or a combination of valproic acid with either scFv(FRP5)-ETA or scFv(14E1)-ETA at the same concentrations. Control cells were grown in the absence of valproic acid or antibody-toxins. Ten μl of 10 mg/ml 3-(4,5-dimethylthiazole-2-yl)-2,5 diphenyltetrazolium bromide (MTT) (Sigma, Deisenhofen, Germany) in PBS were added to each well and the cells were incubated for another 3 h. Cells were lysed by the addition of 90 μl of lysis buffer (20% SDS in 50% dimethyl formamide, pH 4.7). After solubilization of the formazan product, the absorption at 590 nm was determined in a microplate reader (Dynatech, Denkendorf, Germany) and the relative amount of viable cells in comparison to cells cultured without the addition of valproic acid or antibody-toxins was calculated.

[2] = system: Renca-lacZ/ErbB2 renal carcinoma cells; assay: MTT cell viability assay; type: cell-based, Mouse; conditions: 40 h
Source text: as §1, §2

[3] = system: Renca-lacZ/EGFR renal carcinoma cells; assay: MTT cell viability assay; type: cell-based, Mouse; conditions: 40 h
Source text: as §1, §2

human endothelial cells = assay: endothelial cell activation (anti-angiogenesis); type: cell-based; conditions: VPA and inhibitors of VEGF-R tyrosine kinase activity at the same time, vs individual drugs alone
Description: In addition, the effect of inhibitors of vascular endothelial growth factor receptor (VEGF-R) tyrosine kinase activity was tested on these cells since VEGF-R inhibitors are known to act anti-angiogenic in model systems of tumor-associated endothelial cell activation (e.g. vascular tube formation and/or endothelial cell activation).

[4] = system: MCF-7 estrogen-dependent breast cancer cells; assay: SRB-assay, reduction in total cellular biomass; type: cell-based, human
Description: (§3) The reduction in cellular biomass was measured by SRB-assay. For this assay cells were seeded in 96 well culture dishes at densities between 3000 and 8000 cells per well. […] Cultures were fixed with cold TCA producing a final TCA concentration of 10%. After 1 hour of incubation at 4° C. the cells were washed five times with water and air dried. Fixed cells were stained for 30 minutes with 0,4% (wt/vol) Sulforhodamine B (SRB) dissolved in 1% acetic acid and washed four times with 1% acetic acid to remove unbound dye. After air drying bound dye was solubilized with 10 mM unbuffered Tris base (pH 10,5) for 5 minutes. Optical densities were read on a Titertek Multiskan Plus spectrophotometric plate reader at 550 nm. Six test wells for each dose-response were set in parallel with 12 growth control wells per cell line. A measure of the cell population density at time 0 (To; the time at which the drug was added) was also made from 12 extra reference wells of cells fixed with TCA just prior to drug addition to the test plates. Background OD of complete medium with 5% FBS fixed and stained as described above was also determined in 12 separate wells. From the unprocessed OD data from each microtiter plate the background OD measurements (i.e. OD of complete medium plus stain and OD of cells at T0) were subtracted thus giving the reduction of cellular biomass of the cells.
(§4) The effect on the reduction in total cellular biomass was measured by SRB-assay (see example 1 for assay and read-out procedure details).
(§5) Results using MCF-7 estrogen-dependent breast cancer cells are presented in FIG. 18 and using DU-145 prostate cancer cells in FIG. 19. […] The effect on cell growth was measured by SRB-assay as described in example 1.

[5] = system: DU-145 prostate cancer cells; assay: SRB-assay, reduction in total cellular biomass; type: cell-based, human
Description: as §3, §4, §5

[6] = dose finding experiment, VPA serum levels; type: in vivo, rat; conditions: chosen dosage protocol
Description: MT450 cells were grown in DMEM/W10% FCS medium and tested for absence of mycoplasms just prior to injection. Cells were washed twice in PBS and suspended to a density of 5×10^6 cells per ml of PBS. 5×10^5 cells in 0.1 ml of PBS were injected into each rat. […] Rats were left to grow primary tumors for 21 days. […] The solution was sterile filtered. The compound was applied by i.p. injection. […] Two doses per day were applied. Control animals received equal amounts of a sterile isotonic sodium chloride solution.
The experiment was terminated when tumor size in one of the rats of the control group had reached the legal limit of 50 mm. Necropsy at that time was performed on all rats of the experiment to assess lung metastasis. […] Metastasis was also found in 7 out of 8 VPA-treated rats. However, size and number of metastases were much smaller compared to NaCl-treated rats. A dose finding experiment had shown that the chosen dosage protocol lead to high initial serum levels (e.g. 3.6 mM at 1 hour after i.p. injection) which rapidly dropped (e.g. 0.25 mM at 4 hours after i.p. injection) below those levels which are maintained during therapy of epilepsy in human.

[7] = 1 mM valproic acid + 1 ng/ml scFv(14E1)-ETA
[8] = single reagent, valproic acid 1 mM, scFv(14E1)-ETA 1 ng/ml
[9] = VPA in combination with 100 nM 1α,25 Dihydroxyvitamin D3, 48 hours, vs either alone

For `CCCC(CCC)C(=O)O` [VPA, 2-propylpentanoic acid], the “cell viability, combination treatment” value [1, 7] was “pronounced additive therapeutic effect”, the cell viability [1, 8] was “inhibit the viability” and the “cell viability, combination treatment” value ([2]; 1 mM valproic acid + 10 ng/ml scFv(FRP5)-ETA) was “pronounced additive therapeutic effect”. The cell viability ([2]; single reagent, valproic acid 1 mM, scFv(FRP5)-ETA 10 ng/ml) was “inhibit the viability”, the “cell viability, combination treatment” value [3, 7] was “pronounced additive therapeutic effect” and the cell viability [3, 8] was “inhibit the viability”. For the same molecule, the “activation of endothelial cells” value (human endothelial cells) was “at least additive effect”, the “reduction in cellular biomass” value ([4]; 0.75 mM VPA in combination with Paclitaxel, 48 hours, compared to either alone) was “clear additive reduction in cellular biomass” and the “effect of the combination treatment” value ([4]; VPA in combination with 100 nM 1α,25 Dihydroxyvitamin D3, 48 hours) was “slight synergistic effect”. The “reduction in cellular biomass” value [4, 9] was “at least additive reduction in cellular biomass”, the “reduction of cellular biomass” value ([5]; 1 mM VPA in combination with lower concentrations of cis Platinum, 48 hours) was “synergistic reduction of cellular biomass” and the “reduction in cellular biomass” value [5, 9] was “at least additive reduction in cellular biomass”. The serum level ([6]; 1 hour after i.p. injection) was 3600 µM and the serum level ([6]; 4 hours after i.p. injection) was 250 µM.
